Reference: patent US20230240953A1, “AN ANTIMICROBIAL COMPOSITION, PROCESS FOR PREPARING THE SAME AND METHOD OF USE THEREOF” (ISP INVESTMENTS LLC, priority 2020, published 2023)
Where two headings read alike, the source gives them in different places.

How the values were obtained:
Assay in all cases: Checkerboard microplate synergy assay, compound A = HPB
Type in all cases: cell-based
[1] = tested on: Staphylococcus aureus 6538; conditions: for Interaction / SI index (Synergy Index = Qa/QA+Qb/QB): HPB + compound B
Experimental: (§1) The synergistic antimicrobial effect was determined using a commonly accepted method described by Kull A. C, Eisman, P. C. Sylwestrowicz, H. D. and Mayer, R. L. 1961. Applied Microbiology, 9:538-541
(§2) Briefly, the standard checkerboard approach was used to make all the dilutions. HPB (compound A) solution was prepared and then serially diluted in DMSO using the 96-well dilution plate. Automated liquid handler was then used to stamp multiple assay plates using this dilution plate. Each well of the assay plate was then supplemented with a predetermined concentration of the second antimicrobial (compound B). The final concentration of DMSO was kept constant across the plate for each assay, not exceeding 3% (w/w).
(§3) To evaluate antibacterial activity of the actives, freshly prepared S. aureus and B. cepacia cells were harvested and resuspended in Trypticase Soy Broth (TSB). The cell suspension was then added to the wells of the appropriate plates with the final cell density being 10^6 cfu/ml. Fungal plates were incubated at 28° C. for 4-5 days, prior to being evaluated. Bacterial plates were incubated for 48 hours at 35° C. prior to being evaluated.
(§4) Synergy Index (SI)=Qa/QA+Qb/QB • Qa is the MIC of compound A (HPB) in ppm, when compound A is being used in combination with compound B • QA is the MIC of compound A (HPB) in ppm, acting alone • Qb is the MIC of compound B in ppm, when the compound B is being used in combination with compound A • QB is the MIC of compound B in ppm, acting alone Each ratio Qa/QA and Qb/QB is sometimes referred to as Fractional Inhibitory Concentrations (FICs) of compounds A and B, respectively, when these two compounds are being used in combination with one another. The sum of FICs constitute the Synergy Index (SI). The synergistic effect is indicated if the Synergy Index is below one (SI<1). An additive effect is indicated if the Synergy Index is equal to one (SI=1). An antagonistic effect is indicated if synergy index is greater than one (SI>1). The lower the SI index the greater the synergy.

[2] = tested on: Burkholderia cepacia 25416; conditions: for Interaction / SI index (Synergy Index = Qa/QA+Qb/QB): HPB + compound B
Experimental: as §1, §2, §3, §4

[3] = tested on: Aspergillus brasiliensis 16404; parameters: key to SI index (Synergy Index = Qa/QA+Qb/QB): SI = Qa/QA + Qb/QB (MICs in ppm); <1 synergy, =1 additive, >1 antagonism; conditions: for MIC: Aspergillus brasiliensis, 16404, compound B alone, read-out: Compound B (Qb): MIC of compound B acting alone; for Interaction / SI index (Synergy Index = Qa/QA+Qb/QB): HPB + compound B
Experimental: as §1, §2
To evaluate antifungal activity of the actives, freshly prepared A. brasiliensis spores were harvested and resuspended in Yeast and Malt Broth (YMB). The spore suspension was then added to the appropriate plates with the final density being 10^5 cfu/ml.
as §3, §4

[4] = Staphylococcus aureus, 6538, S. aureus, compound B alone, read-out: Compound B (QB): MIC of compound B acting alone
[5] = Burkholderia cepacia, 25416, B. cepacia, compound B alone, read-out: Compound B (Qb): MIC of compound B acting alone

Compound | Interaction ([2]; B. cepacia) | SI index (Synergy Index = Qa/QA+Qb/QB) ([2]; B. cepacia) | Compound B (Qb): MIC of compound B when used in combination with HPB ([2]; B. cepacia) | MIC [3] [µg/mL] | Interaction [3] | SI index (Synergy Index = Qa/QA+Qb/QB) [3] | Compound B (Qb): MIC of compound B when used in combination with HPB [3] | Compound B (Qb): MIC of compound B acting alone [3] | other results
OCCCc1ccccc1 | synergistic | 0.75 | 156 ppm |  |  |  |  |  | Interaction ([1]; S. aureus): synergistic; SI index (Synergy Index = Qa/QA+Qb/QB) ([1]; S. aureus): ≤0.5625; Compound B (Qb): MIC of compound B when used in combination with HPB ([1]; S. aureus): 156 ppm; Compound B (QB): MIC of compound B acting alone ([1]; S. aureus, compound B alone): 2,500 ppm; Compound B (QB): MIC of compound B acting alone ([2]; B. cepacia, compound B alone): 625 ppm
CCCCC(O)CO (stereo not shown) [1,2-Hexanediol] |  |  |  | 12500 | Additive (An additive effect is indicated if the Synergy Index is equal to one (SI=1)) | 1 | 6,300 ppm |  | 
CCCCCCC(O)CO (stereo not shown) [1,2-Octanediol] |  |  |  | 1600 | Synergistic (The synergistic effect is indicated if the Synergy Index is below one (SI<1)) | 0.56 | 100 ppm |  | 
CCCC(O)CO (stereo not shown) [1,2-Pentanediol] |  |  |  | 100000 | Additive (An additive effect is indicated if the Synergy Index is equal to one (SI=1)) | 1 | 50,000 ppm |  | 
OCCCO [1,3-Propanediol] |  |  |  |  | Additive (An additive effect is indicated if the Synergy Index is equal to one (SI=1)) | ≤1 | 100,000 ppm | ≥200,000 ppm | 
COc1ccc(C(=O)O)cc1 [Anisic acid] |  |  |  |  | Synergistic (The synergistic effect is indicated if the Synergy Index is below one (SI<1)) | 0.75 | 250 ppm | 1,000 ppm | 
O=C(O)c1ccccc1 [Benzoic acid] |  |  |  | 1000 | Synergistic (The synergistic effect is indicated if the Synergy Index is below one (SI<1)) | 0.75 | 500 ppm |  | 
OCc1ccccc1 [Benzyl alcohol] |  |  |  | 5000 | Synergistic (The synergistic effect is indicated if the Synergy Index is below one (SI<1)) | 0.75 | 2,500 ppm |  | Interaction ([1]; S. aureus): synergistic; SI index (Synergy Index = Qa/QA+Qb/QB) ([1]; S. aureus): ≤0.625; Compound B (Qb): MIC of compound B when used in combination with HPB ([1]; S. aureus): 625 ppm; MIC [1, 4]: 5000 µg/mL
CCCCCCCC(=O)NO [Caprylhydroxamic acid] | synergistic | 0.75 | 31.3 ppm | 250 | Synergistic (The synergistic effect is indicated if the Synergy Index is below one (SI<1)) | 0.5625 | 125 ppm |  | Interaction ([1]; S. aureus): synergistic; SI index (Synergy Index = Qa/QA+Qb/QB) ([1]; S. aureus): ≤0.625; Compound B (Qb): MIC of compound B when used in combination with HPB ([1]; S. aureus): 125 ppm; MIC [1, 4]: 1000 µg/mL; MIC [2, 5]: 125 µg/mL
O=C(O)C=Cc1ccccc1 [Cinnamic acid] |  |  |  | 500 | Additive (An additive effect is indicated if the Synergy Index is equal to one (SI=1)) | 1-2 | 500 ppm |  | 
O=C(O)CN(CCN(CC(=O)O)CC(=O)O)CC(=O)O [EDTA] |  |  |  |  | Synergistic (The synergistic effect is indicated if the Synergy Index is below one (SI<1)) | 0.56 | 800 ppm | 12,500 ppm | 
CCCCC(CC)COCC(O)CO (stereo not shown) [Ethylhexylglycerin] |  |  |  |  | Synergistic (The synergistic effect is indicated if the Synergy Index is below one (SI<1)) | 0.56 | 100 ppm | 1,600 ppm | 
O=C(O)CC[C@@H](C(=O)O)N(CC(=O)O)CC(=O)O [GLDA] |  |  |  |  | Synergistic (The synergistic effect is indicated if the Synergy Index is below one (SI<1)) | 0.75 | 1,600 ppm | 6,250 ppm | 
Cc1occc(=O)c1O [Maltol] |  |  |  | 2000 | Synergistic (The synergistic effect is indicated if the Synergy Index is below one (SI<1)) | 0.75 | 1,000 ppm |  | 
OCCc1ccccc1 [Phenethyl alcohol] | synergistic | 0.625 | 125 ppm |  |  |  |  |  | Interaction ([1]; S. aureus): synergistic; SI index (Synergy Index = Qa/QA+Qb/QB) ([1]; S. aureus): ≤0.75; Compound B (Qb): MIC of compound B when used in combination with HPB ([1]; S. aureus): 2,000 ppm; MIC [1, 4]: ≥ 4000 µg/mL; MIC [2, 5]: 1000 µg/mL
O=P(O)(O)O[C@H]1[C@H](OP(=O)(O)O)[C@@H](OP(=O)(O)O)[C@H](OP(=O)(O)O)[C@@H](OP(=O)(O)O)[C@H]1OP(=O)(O)O [Phytic acid] |  |  |  | 12500 | Synergistic (The synergistic effect is indicated if the Synergy Index is below one (SI<1)) | 0.75 | 3,125 ppm |  | 
[F-].[Na+] [Sodium fluoride] | synergistic | ≤0.625 | 10,000 ppm |  |  |  |  |  | Compound B (QB): MIC of compound B acting alone ([2]; B. cepacia, compound B alone): ≥200,000 ppm
CCCCCCCCCCCCCC[N+](C)(C)C.[Br-] [Tetradecyl trimethyl ammonium bromide] | synergistic | 0.625 | 6.3 ppm | 25 | Synergistic (The synergistic effect is indicated if the Synergy Index is below one (SI<1)) | 0.375 | 3.1 ppm |  | Interaction ([1]; S. aureus): synergistic; SI index (Synergy Index = Qa/QA+Qb/QB) ([1]; S. aureus): ≤0.5; Compound B (Qb): MIC of compound B when used in combination with HPB ([1]; S. aureus): 0.4 ppm; MIC [1, 4]: 1.6 µg/mL; MIC [2, 5]: 50 µg/mL
COc1ccc(C=O)cc1OC [Veratraldehyde] | synergistic | 0.75 | 1000 ppm | 2000 | Synergistic (The synergistic effect is indicated if the Synergy Index is below one (SI<1)) | 0.625 | 1,000 ppm |  | Interaction ([1]; S. aureus): synergistic; SI index (Synergy Index = Qa/QA+Qb/QB) ([1]; S. aureus): ≤0.625; Compound B (Qb): MIC of compound B when used in combination with HPB ([1]; S. aureus): 1,000 ppm; MIC ([1]; Staphylococcus aureus, 6538, read-out: Compound B (QB): MIC of compound B acting alone): ≥ 8000 µg/mL; MIC ([2]; Burkholderia cepacia, 25416, read-out: Compound B (Qb): MIC of compound B acting alone): 2000 µg/mL
CCCCNC(=O)OCC#CI [lodopropynyl butylcarbamate (IPBC), lodopropynyl butylcarbamate] | synergistic | 0.508 | 2 ppm |  |  |  |  |  | Compound B (QB): MIC of compound B acting alone ([2]; B. cepacia, compound B alone): 250 ppm
Glyceryl caprylate/caprate |  |  |  |  | Synergistic (The synergistic effect is indicated if the Synergy Index is below one (SI<1)) | 0.75 | 800 ppm | 3,125 ppm | 
Hexyl glycerin |  |  |  |  | Additive (An additive effect is indicated if the Synergy Index is equal to one (SI=1)) | 1 | 1,600 ppm | 3,125 ppm | 
